{
  "source": "patent US20100160386A1",
  "about": "“4-PHENOXY-NICOTINE ACID DERIVATIVES AND USE THEREOF AS PPAR-MODULATORS” (BAYER SCHERING PHARMA AKTIENGESELLSCHAFT, priority 2006, published 2010)",
  "target": "T1, human PPARα-receptor (Homo sapiens, UniProt Q07869)",
  "T1 construct": "expressed in transfected cells",
  "T1 sequence (Q07869 167-468)": "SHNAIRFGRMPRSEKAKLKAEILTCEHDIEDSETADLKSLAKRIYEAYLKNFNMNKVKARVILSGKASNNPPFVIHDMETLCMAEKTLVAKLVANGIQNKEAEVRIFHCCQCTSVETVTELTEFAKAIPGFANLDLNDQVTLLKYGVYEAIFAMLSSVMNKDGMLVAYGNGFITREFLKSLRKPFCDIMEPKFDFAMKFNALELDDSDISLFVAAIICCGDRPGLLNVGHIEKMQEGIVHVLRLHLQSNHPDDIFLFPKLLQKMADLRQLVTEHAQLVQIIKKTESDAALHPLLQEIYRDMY",
  "experiment": "Cellular transactivation assay (GAL4-PPARα chimera, luciferase reporter in CHO cells)",
  "type": "cell-based",
  "settings": "CHO cells stably expressing GAL4-PPARα chimera and luciferase reporter; stimulation time 6 h",
  "from_the_text": "A cellular assay is used to identify activators of the peroxisome proliferator-activated receptor alpha (PPAR-alpha).\nSince mammalian cells contain different endogenous nuclear receptors which can complicate unambiguous interpretation of the results, an established chimera system is used, in which the ligand binding domain of the human PPARα-receptor is fused to the DNA binding domain of the yeast transcription factors GAL4. The GAL4-PPARα chimera thus formed is co-transfected and expressed stably in CHO cells with a reporter construct.\nThe GAL4-PPARα expression construct contains the ligand binding domain of PPARα (amino acids 167-468), which is PCR-amplified and cloned into the vector pcDNA3.1. This vector already contains the GAL4 DNA binding domain (amino acids 1-147) of the vector pFC2-dbd (Stratagene). The reporter construct, which contains five copies of the GAL4 binding site upstream of a thymidine kinase promoter, leads to the expression of firefly luciferase (Photinus pyralis) after activation and binding of GAL4-PPARα.\nThe day before the test, CHO (Chinese hamster ovary) cells which stably express the above-described GAL4-PPARα chimera and luciferase reporter gene construct are plated out in 96-hole microtiter plates with 1×10^3 cells in medium (Optimem, GIBCO), 2% activated carbon-purified fetal calf serum (Hyclone), 1.35 mM sodium pyruvate (GIBCO), 0.2% sodium bicarbonate (GIBCO), and kept in a cell incubator (air humidity 96%, 5% v/v CO2, 37° C.). On the day of the test, the substances to be tested are taken up in abovementioned medium, but without addition of calf serum, and added to the cells. After a stimulation time of 6 h, the luciferase activity is measured with the aid of a video camera. The relative light units measured give a sigmoid stimulation curve as a function of the substance concentration. The EC50 values are calculated with the aid of the computer program GraphPad PRISM (Version 3.02).",
  "data": [
    {"smiles": "Cc1ccc(-c2cc(Oc3ccccc3Cl)c(C(=O)O)cn2)cc1F", "note": "[Example 1, 4-(2-Chlorophenoxy)-6-(3-fluoro-4-methylphenyl)nicotinic acid]", "values": [
      {"measurement": "EC50", "result": 59, "unit": "nM"}
    ]},
    {"smiles": "COc1ccc(Cl)c(Oc2cc(-c3cc(F)cc(F)c3)ncc2C(=O)O)c1", "note": "[Example 7, 4-(2-Chloro-5-methoxyphenoxy)-6-(3,5-difluorophenyl)nicotinic acid]", "values": [
      {"measurement": "EC50", "result": 200, "unit": "nM"}
    ]},
    {"smiles": "COc1ccc(Oc2cc(-c3ccc(C)c(F)c3)ncc2C(=O)O)c(Cl)c1", "note": "[Example 9, 4-(2-Chloro-4-methoxyphenoxy)-6-(3-fluoro-4-methylphenyl)nicotinic acid]", "values": [
      {"measurement": "EC50", "result": 235, "unit": "nM"}
    ]}
  ]
}
